Data taken from US4959368A, “Therapeutic agent for neurological diseases” (Mitsui Petrochemical Industries Ltd., priority 1986, dated 1990).

How the values were obtained:
[1] = system: mouse neuroblastoma cell line neuro-2a; experiment: Activity on neuro-2a, cells with outgrown neurites; type: cell-based
Experimental: In order to examine the effects of the test compounds, the following method was also employed.
Mouse neuro 2a cells in the logarithmic growth period in the Dulbecco's modified Eagle's medium (DMEM) containing 10% FCS was seeded in a 48-well plate so that the number of cells was 1,000 cells/well, and cultured for one day in 0.25 ml of the culture fluid in each well. The culture medium was then replaced by a medium containing each of the test compounds and FCS, and the cells were further cultured for 24 hours. Then, a 4% aqueous glutaraldehyde solution in the same amount as the medium (0.25 ml) was added, and the culture fluid was left to stand at room temperature for 2 hours to fix the cells. After washing with water, a 0.05% aqueous solution of methylene blue was added to stain the cells. Under a microscope, the number of cells containing outgrown neurites (cells having at least one neutrite with a length at least two times as large as the long diameter of the cell) was counted visually, and the proportion of these cells in the entire cells was calculated. The well was observed over 5 or more visual fields (at least 2% of the entire surface area of the well) continuous to the left and right from a mark put at the center of the well, and more than 200 cells was counted. One drug compound was used in 6 different concentrations at most, and three runs were conducted for each concentration.

[2] = system: human neuroblastoma cell line GOTO; experiment: Activity on neuroblastoma cell line GOTO (cell number, number and length of neurites); type: cell-based; settings: for Number of cells (mean ± S.E.): control 5.30 ± 0.23
Experimental: (§1) The biological activities in vitro of the compounds of formula (I) on cells of the nervous system were tested. The cells tested were human neuroblastoma cell line GOTO [see Sekiguchi, M., Oota, T., Sakakibara, K., Inui, N. & Fujii, G., Japan. J. Exp. Med., 49, 67-83 (1979)], and neuroblastoma cell line NB-1 [see Miyake, S., Shimo, Y., Kitamura, T., Nojyo, Y., Nakamura, T., Imkashuku, S. and Abe, T., The Autonomic Nervous System, 10, 115-120 (1973)], and mouse neuroblastoma cell line neuro-2a (Dainippon Pharmaceutical Co., Ltd.) which have been established as the cells of the nervous system. The above neuve cells were grown in an incubator at 37° C. in the presence of 5% carbon dioxide gas exponentially, and then cultivated for a certain period of time together with the compounds of formula (I).
The effect of the compounds of this invention on neuroblastoma cells was examined by the following method.
A culture medium [composed of 45% of RPMI 1640 medium, 45% modified Eagle's medium (MEM) and 10% of fetal calf serum (FCS) and containing penicillin G sodium (100 units/ml) and streptomycin sulfate (100 microgram/ml)] containing neurobalstoma cell line GOTO in the logarithmic growth period was poured in an amount of 2 ml each into polystyrene dishes (35 mm; made by Corning Co.) so that the cell concentration was 2 to 6×10^4 cells per dish, and the cells were cultured for 1 to 2 days in a carbon dioxide gas incubator containing 5% of carbon dioxide gas in air at 37° C. Then, the culture fluid was removed, and 2 ml of a fresh serum-free culture fluid (consisting of 50% of RPMI medium and 50% of MEM medium and containing penicillin G sodium and streptomycin sulfate in the same amounts as above) was added. At the same time, a presterilized PBS solution (phosphate buffered saline) of each of the test compounds in various concentrations was added to each of the dishes. After culturing for 24 hours, the number of living cells was counted. Furthermore, the culture was photographed, and from the photos, the number and length of neurites per cell were measured. The numer of living cells was counted for 3 to 6 dishes by resistance to staining with erythrosine dye. The number and length of the neurites were measured with regard to 6 photos (more than 200 cells per photo).

mice = experiment: Acute toxicity, mouse; type: in vivo; settings: Table 7, 1000 mg/kg p.o., 24 hours
Experimental: The acute toxicity of the compounds of the invention was examined by the following method.
Male ddy-strain 5-week old mice and male Wistar-strain 8 week old rats, five per group, were used as experimental animals. Each of the compounds was dissolved in saline and administered perorally, and the toxicity of the compound was assessed 24 hours after the administration.

[3] = system: mouse neuroblastoma cell line neuro-2a; experiment: Activity on cell line neuro-2a (simple method); type: cell-based
Experimental: as §1, with “(I). […]” for “(I).”
As a simple method of evaluation, the number of cells have neurites with a length equal to, or larger than, the long diameter of the cell was divided by the total number of cells.

[4] = system: rats with crushed sciatic nerves; experiment: Curative effect on rats with crushed sciatic nerves; type: in vivo, rat (male Wistar)
Experimental: Curative effect on rats with crushed sciatic nerves:
The curing effect of the compound (I) of the invention was tested on rats having crushed scietic nerves as a model of peripheral nervous disorder using (1) a change in the action of the hind paw with the crushed sciatic nerves and (2) a change in the weight of the muscle as an index of the course of degeneration and regeneartion of peripheral nerves.
In the experiment, male Wistar rats (6 weeks old), seven per group, were used. The sciatic nerves were crushed by a method similar to the method of Yamatsu et al. (see Kiyomi Yamatsu, Takenori Kaneko, Akifumi Kitahara and Isao Ohkawa, Journal of Japanese Pharmacological Society, 72, 259-268 (1976) and the method of Hasegawa et al. (see Kazuo Hasegawa, Naoji Mikuni and Yutaka Sakai, Journal of Japanese Pharmacological Society, 74, 721-734 (1978). Specifically, under anesthesia with pentobarbital (40 mg/kg, i.p.), the left side sciatic nerve was exposed at the femur and that site of the exposed scietic nerve which was 5 mm to the center from the branched part between the N. tibialis and the N. suralis was crushed using a modified artery, klomme, having a width of 2 mm and a gap of 0.1 mm. After the operation, the rats were assigned to the test groups at random.
Compound No. 408 was selected as the compound (I) of the invention and intraperitoneally administered to the rats once a day from the day of operation to the 22nd day. A group to which mecobalamin (made by Gedeon Richter Ltd.) was administered and a group to which 0.9% saline was administered were used as controls. The following items were measured with the lapse of time (on the 1st, 4th, 7th, 10th, 14th, 17th, 21st, and 23rd days after the crushing of the scietic nerves).
(1) Change in the action of the side of the hind paw with the crushed scietic nerve:
By a method similar to the method of Hasegawa [Hasegawa, K., Experientia, 34, 750-751 (1978)], the distance between the first and fifth digits of the hind paw was measured.
The ratio of the measured distance to the normal distance was calculated and expressed in percentage (%).
(2) Change in the weight of muscle
It is known that removal of a nerve or its disorder causes atrophy of the muscle which is under its control, and the atrophy is gradually cured by re-control by the nerve. For this reason, a change in the weight of the muscle, which is quantitative, was selected as an index. Twenty-three days after the operation, the soleus muscles of both sides of paws were extracted under anesthesia with pentobarbital, and their weights were measured. The ratio of the weight of the soleus muscle on the crushed side to that of normal side was calculated and expressed in percentage (%).

[5] = Table 3 Run No. 6, 0.1 mM, control 4.4 ± 0.9

c1ccc(CN2CCN(c3ncccn3)CC2)cc1 [Compound 132]
Cells having neurites with a length at least twice the long diameter of cell/total number of cells ([1]; Table 3 Run No. 1, 0.027 μM, control 2.2 ± 0.8): 4.2 ± 1.0% | Cells having neurites with a length at least twice the long diameter of cell/total number of cells ([1]; Table 3 Run No. 1, 0.27 μM, control 2.2 ± 0.8): 4.3 ± 1.2% | Cells having neurites with a length at least twice the long diameter of cell/total number of cells ([1]; Table 3 Run No. 1, 27 μM, control 2.2 ± 0.8): 4.3 ± 0.5% | Cells having neurites with a length at least twice the long diameter of cell/total number of cells ([1]; Table 3 Run No. 2, 0.1 mM, control 1.9 ± 0.9): 4.4 ± 0.7% | Cells having neurites with a length at least twice the long diameter of cell/total number of cells ([1]; Table 3 Run No. 2, 0.3 mM, control 1.9 ± 0.9): 11.2 ± 1.3% | Cells having neurites with a length at least twice the long diameter of cell/total number of cells ([1]; Table 3 Run No. 2, 1 mM, control 1.9 ± 0.9): 9.1 ± 3.0% | Number of neurites/cell (mean ± S.D.) ([2]; Table 1 Run No. 5, 1 μg/ml, control 1.96 ± 0.64): 1.95 ± 0.46 neurites/cell | Number of cells (mean ± S.E.) ([2]; Table 1 Run No. 5, 1 μg/ml): 5.63 ± 0.68 × 10^4 /dish | Length of neurites (mean ± S.D.) ([2]; Table 1 Run No. 5, 1 μg/ml, control 46.41 ± 33.28): 52.61 ± 32.09 μm/cell | Number of neurites/cell (mean ± S.D.) ([2]; Table 1 Run No. 5, 10 μg/ml, control 1.96 ± 0.64): 2.03 ± 0.63 neurites/cell | Number of cells (mean ± S.E.) ([2]; Table 1 Run No. 5, 10 μg/ml): 6.26 ± 0.27 × 10^4 /dish | Length of neurites (mean ± S.D.) ([2]; Table 1 Run No. 5, 10 μg/ml, control 46.41 ± 33.28): 52.85 ± 30.00 μm/cell | Number of dead animals/number of test animals (mice): 0/5

O=C1CCCc2nc(N3CCNCC3)ncc2N1 [Compound 502]
Cells having neurites with a length at least twice the long diameter of cell/total number of cells ([1]; Table 3 Run No. 8, 0.3 mM, control 3.7 ± 0.4): 5.5 ± 2.0% | Cells having neurites with a length at least twice the long diameter of cell/total number of cells ([1]; Table 3 Run No. 8, 1 mM, control 3.7 ± 0.4): 7.8 ± 1.2% | Length of neurites (mean ± S.D.) ([2]; Table 1, Run No. 7 by footnote, 1 μg/ml, control 42.20 ± 17.75, all *P <0.01): 52.24 ± 23.92 μm/cell | Number of neurites/cell (mean ± S.D.) ([2]; Table 1, last control group (Run No. 7 by footnote), 1 μg/ml, control 1.77 ± 0.68): 1.99 ± 0.65 neurites/cell | Number of dead animals/number of test animals (mice): 0/5

O=C1NCc2nc(N3CCNCC3)ncc21 [Compound 620]
Cells having neurites with a length at least twice the long diameter of cell/total number of cells [1, 5]: 7.2 ± 0.3% | Cells having neurites with a length at least twice the long diameter of cell/total number of cells ([1]; Table 3 Run No. 6, 1 mM, control 4.4 ± 0.9): 10.5 ± 3.2% | Cells having neurites with a length at least twice the long diameter of cell/total number of cells ([1]; Table 3 Run No. 6, 3 mM, control 4.4 ± 0.9): 20.7 ± 2.5% | Cells having neurites with a length at least twice the long diameter of cell/total number of cells ([1]; Table 3 Run No. 9, 0.3 mM, control 2.0 ± 1.0): 6.2 ± 1.5% | Cells having neurites with a length at least twice the long diameter of cell/total number of cells ([1]; Table 3 Run No. 9, 1 mM, control 2.0 ± 1.0): 11.3 ± 3.3% | Cells having neurites with a length at least twice the long diameter of cell/total number of cells ([1]; Table 3 Run No. 9, 3 mM, control 2.0 ± 1.0): 19.6 ± 0.5% | Average of the proportions ([3]; Table 2 neuro-2a Run No. 3, 0.01 μg/ml, control 2.0): 13.01% | Average of the proportions ([3]; Table 2 neuro-2a Run No. 3, 0.1 μg/ml, control 2.0): 15.46% | Average of the proportions ([3]; Table 2 neuro-2a Run No. 3, 1 μg/ml, control 2.0): 9.8% | Number of dead animals/number of test animals (mice): 0/5

Cn1[nH]c2nc(N3CCNCC3)ncc2c1=O [Compound 802]
Cells having neurites with a length at least twice the long diameter of cell/total number of cells [1, 5]: 7.5 ± 2.2% | Average of the proportions ([3]; Table 2 neuro-2a Run No. 2, 1 μg/ml, control 7.9): 19.68% | Average of the proportions ([3]; Table 2 neuro-2a Run No. 2, 10 μg/ml, control 7.9): 15.51% | Number of neurites/cell (mean ± S.D.) ([2]; Table 1, Run No. 7 by footnote, 10 μg/ml, control 1.77 ± 0.68): 2.02 ± 0.71 neurites/cell | Length of neurites (mean ± S.D.) ([2]; Table 1, Run No. 7 by footnote, 10 μg/ml, control 42.20 ± 17.75, all *P <0.01): 52.16 ± 19.79 μm/cell

C/C1=C2/[N-][C@H]([C@H](CC(N)=O)[C@@]2(C)CCC(=O)NC[C@@H](C)OP(=O)([O-])O[C@H]2[C@@H](O)[C@@H](n3cnc4cc(C)c(C)cc43)O[C@@H]2CO)[C@]2(C)N=C(/C(C)=C3N=C(/C=C4N=C1[C@@H](CCC(N)=O)C\4(C)C)[C@@H](CCC(N)=O)[C@]\3(C)CC(N)=O)[C@@H](CCC(N)=O)[C@]2(C)CC(N)=O.[CH3-].[Co+3] [Mecobalamin, mecobalamin, reference compound]
Rate of recovery of the interdigit distance ([4]; 21st day, 0.5 mg/kg ip, saline 62.0 ± 2.4, ***P < 0.001): 79.1 ± 2.6% | Rate of recovery of the interdigit distance ([4]; 23rd day, 0.5 mg/kg ip, saline 71.1 ± 3.4, **P < 0.01): 88.3 ± 4.0% | interdigit distance, recovery versus saline ([4]; in words, 21st day): apparent tendency to quicker recovery | Rate of recovery in muscle weight ([4]; soleus muscle, 23rd day, 0.5 mg/kg ip, saline 51.8 ± 1.2): 55.0 ± 3.5%
